In ChEMBL document CHEMBL4340538, “Cynaropicrin and inhibition of NF-κB activation: A structure activity relationship study” (Bioorg Med Chem Lett, 2019):
Calls of active or inactive are those of the source. No cut-off for these calls is given here.

Assays:
Assay type in all cases: cell-based
HEK293 [1] = assay: Cytotoxicity against human HEK293 cells at 0.75 uM to 3 uM after 7 hrs by WST-8 assay; settings: hek293, 7 h
HEK293 [2] = assay: Inhibition of TNFalpha-induced NFkappaB activation in human HEK293 cells expressing pGL4.32 [luc2p/NF-kBRE/Hygro] assessed as NFkappaB activity by measuring relative light units at 1.5 uM incubated for 2 hrs followed by TNFalpha addition and measured after 5 hrs by luciferase reporter gene assay
HEK293 [3] = assay: Inhibition of TNFalpha-induced NFkappaB activation in human HEK293 cells expressing pGL4.32 [luc2p/NF-kBRE/Hygro] assessed as NFkappaB activity by measuring relative light units at 0.75 uM incubated for 2 hrs followed by TNFalpha addition and measured after 5 hrs by luciferase reporter gene assay
HEK293 [4] = assay: Inhibition of TNFalpha-induced NFkappaB activation in human HEK293 cells expressing pGL4.32 [luc2p/NF-kBRE/Hygro] assessed as NFkappaB activity by measuring relative light units at 3 uM incubated for 2 hrs followed by TNFalpha addition and measured after 5 hrs by luciferase reporter gene assay
HEK293 [5] = assay: Cytotoxicity against human HEK293 cells at 3 uM after 7 hrs by WST-8 assay; settings: hek293, 7 h
HEK293 [6] = assay: Inhibition of TNFalpha-induced NFkappaB activation in human HEK293 cells expressing pGL4.32 [luc2p/NF-kBRE/Hygro] at 80 uM incubated for 2 hrs followed by TNFalpha addition and measured after 5 hrs by luciferase reporter gene assay
HEK293 [7] = assay: Inhibition of TNFalpha-induced NFkappaB activation in human HEK293 cells expressing pGL4.32 [luc2p/NF-kBRE/Hygro] at 2.5 uM to 10 uM incubated for 2 hrs followed by TNFalpha addition and measured after 5 hrs by luciferase reporter gene assay

Row | SMILES | Activity (HEK293 [1]) | Activity (HEK293 [2]) | Activity (HEK293 [3]) | Activity (HEK293 [4]) | Activity (HEK293 [5]) | inhibition (HEK293 [6]) | inhibition (HEK293 [7])
1 | C=C(COC)C(=O)O[C@H]1CC(=C)[C@@H]2C[C@H](O)C(=C)[C@@H]2[C@H]2OC(=O)C(=C)[C@@H]21 | Non-Toxic | 151 RLU | 161 RLU | 137 RLU | Non-Toxic |  | 
2 | S=C(S)N1CCCC1 |  |  |  |  |  | Active | 
3 | C=C(CO)C(=O)O[C@H]1CC(=C)[C@@H]2C[C@H](O)C(=C)[C@@H]2[C@H]2OC(=O)C(=C)[C@@H]21 [CYNAROPICRIN] | Non-Toxic | 72.8 RLU | 134 RLU | 5.67 RLU | Non-Toxic |  | Active
4 | C=C1C(=O)O[C@@H]2[C@H]3C(=C)[C@@H](O)C[C@H]3C(=C)C[C@H](OC(=O)C(C)CO)[C@@H]12 (some centres not stated) | Non-Toxic | 135 RLU | 123 RLU | 137 RLU | Non-Toxic |  | 
5 | C=C1C(=O)O[C@@H]2[C@H]3C(=C)[C@@H](OCOC)C[C@H]3C(=C)C[C@H](O)[C@@H]12 | Non-Toxic | 125 RLU | 127 RLU | 100 RLU | Non-Toxic |  | 
6 | C=C(COC(C)=O)C(=O)O[C@H]1CC(=C)[C@@H]2C[C@H](OC(C)=O)C(=C)[C@@H]2[C@H]2OC(=O)C(=C)[C@@H]21 | Non-Toxic | 142 RLU | 171 RLU | 93.5 RLU | Non-Toxic |  | 
7 | C=C1[C@@H]2[C@H]3OC(=O)C(C)[C@@H]3[C@@H](OC(=O)C(C)CO)CC(=C)[C@@H]2C[C@@H]1O (some centres not stated) | Non-Toxic | 139 RLU | 123 RLU | 137 RLU | Non-Toxic |  | 
8 | C=C(COC)C(=O)O[C@H]1CC(=C)[C@@H]2C[C@H](OC)C(=C)[C@@H]2[C@H]2OC(=O)C(=C)[C@@H]21 | Non-Toxic | 158 RLU | 174 RLU | 134 RLU | Non-Toxic |  | 
9 | C=C(COC(C)=O)C(=O)O[C@H]1CC(=C)[C@@H]2C[C@H](O)C(=C)[C@@H]2[C@H]2OC(=O)C(=C)[C@@H]21 | Non-Toxic | 110 RLU | 130 RLU | 33.8 RLU | Non-Toxic |  | 
10 | C=C1C(=O)O[C@@H]2[C@H]3C(=C)[C@@H](O)C[C@H]3C(=C)C[C@H](O)[C@@H]12 [DESACYLCYNAROPICRIN] | Non-Toxic | 119 RLU | 127 RLU | 96.4 RLU | Non-Toxic |  | 
11 | C=C(COCOC)C(=O)O[C@H]1CC(=C)[C@@H]2C[C@H](OCOC)C(=C)[C@@H]2[C@H]2OC(=O)C(=C)[C@@H]21 | Non-Toxic | 98.3 RLU | 154 RLU | 8.97 RLU | Non-Toxic |  | 
